From article PMC10020666, “Oxidation modulates LINGO2-induced inactivation of large conductance, Ca^2+-activated potassium channels” (The Journal of Biological Chemistry, 2023) come the findings set out here.

In assay [1] the test system is BK:LINGO2 channels. As to the kind of experiment: Effect of oxidizing/reducing agents on BK:LINGO2 currents (inside-out patch, step to +160 mV). The assay is classed as cell-based, rabbit BKα, human LINGO2. The note with it: 200 μM Ch-T, 100 nM Ca2+. The method, then: (§1) All excised patch experiments were performed at 37 °C in 140 mM symmetrical K^+ solutions which contained 140 mM KCl, 10 mM glucose, 10 mM Hepes, and either 1 mM ethylene glycol-bis(β-amino ether)-N,N,N′,N′-tetraacetic acid (EGTA (for free [Ca^2+] 100 nM to 300 nM) or 1 mM hydroxyethylethylenediaminetriacetic acid (HEDTA for free [Ca^2+] 1 μM to 10 μM) and the pH of all solutions was adjusted to 7.2 with KOH. These solutions were made with double-distilled, deionized, filtered water from a MilliQ water purification system. The pipette solution contained 100 nM free Ca^2+. We used “Chelator” (https://www.ru.nl/animal/research/chelator/) to calculate the total amount of Ca^2+ required, as per Schoenmakers et al., ([40]) and free Ca^2+ concentrations were checked with a Ca^2+ sensitive electrode.
(§2) During experiments, the dish containing HEK cells was superfused with Hanks solution, which contained (in mM) 129.8 Na^+, 5.8 K^+, 135 Cl^-, 4.17 HCO3^-, 0.34 HPO4^2-, 0.44 H2PO4^-, 1.8 Ca^2+, 0.9 Mg^2+, 0.4 SO4^2-, 10 glucose, 2.9 sucrose, and 10 Hepes, and its pH was adjusted to 7.4 with NaOH. In addition, the patch under study was continuously superfused by means of a close delivery system consisting of a pipette (tip diameter 200 μm) placed approximately 300 μm away from the cell. This could be switched, with a dead-space time of around 5 s, to a solution containing a drug.
(§3) Electrodes were pulled from Corning borosilicate glass (1.5 mm O.D. × 0.86 mm I.D.) using a Sutter P-97 pipette puller and fire polished using a Narashige MF 83 microforge. Pipettes had resistances of 2 to 5 MΩ when filled with recording solutions and series resistance was compensated by up to 80%. Standard single-channel patch clamp recording methods were used. Voltage clamp commands were delivered via an Axopatch 200B patch clamp amplifier (Axon Instruments) connected to a Digidata 1322A AD/DA converter (Axon Instruments) interfaced to computers running pClamp software (Axon Instruments). Data was acquired at 100 KHz and filtered at 2 KHz or 5 KHz. Patches were held at either −60 mV or −100 mV and depolarized in 20 mV increments to 200 mV. Residual capacitance and leakage currents were subtracted using either a P/4 protocol or offline by manual leak subtraction.
(§4) The human LINGO2 transcript used [NM_001354575.2] was untagged in a pcDNA 3.1 vector (VectorBuilder). The α subunit of the rabbit BK channel was isolated from rabbit urethral smooth muscle and cloned using the pcDNA TOPO DNA cloning kit (Life Technologies). The identifiesd transcript corresponded to the ZERO variant of mouse BKα and to variant 2 (NM_002247.3) of human BKα. We used 100 ng ml^−1 cDNA for BKα only transfections, whereas a 100:500 ng ml^−1 cDNA ratio was used for BKα:LINGO2 and BKα:LINGO1 cotransfections for inside-out patch recordings. GFP (150 ng ml^−1) was included in all transfections except those used for Figure 2, C and D. cDNA was transiently transfected into HEK cells using lipofectamine. Site-directed mutagenesis used the Phusion kit (Thermo Fisher Scientific) method ([41]) and all mutations were confirmed by sequencing.
HEK293 cells were cultured in Dulbecco's modified Eagle's medium + MEM media containing 10% fetal bovine serum and 1% Penicillin-Streptomycin antibiotics at 37 °C, and 95% humidifying incubator containing 5% CO2. Subculturing was done by 0.05% Trypsin-EDTA solution.
All data is presented as mean ± SD and was analyzed with Prism software (GraphPad). Individual data points are also shown in bar charts. Statistical differences were assessed using either paired or unpaired nonparametric tests (Wilcoxin signed-rank test, Mann–Whitney test), or the extra sum of squares F-test, as appropriate. Comparisons of three or more nonparametric data sets used Friedman’s test followed by Dunn’s test for multiple comparisons, whereas ANOVA was used for three or more parametric data sets. p < 0.05 was taken as significant.

The subject of another assay is BKα currents. As to the kind of experiment: Effect of Ch-T on BKα currents in absence of LINGO2 (inside-out patch). The assay is classed as cell-based, rabbit. The method, then: as §1
During experiments, the dish containing HEK cells was superfused with Hanks solution, which contained (in mM) 129.8 Na^+, 5.8 K^+, 135 Cl^-, 4.17 HCO3^-, 0.34 HPO4^2-, 0.44 H2PO4^-, 1.8 Ca^2+, 0.9 Mg^2+, 0.4 SO4^2-, 10 glucose, 2.9 sucrose, and 10 Hepes, and its pH was adjusted to 7.4 with NaOH. […]
(§5) All data is presented as mean ± SD and was analyzed with Prism software (GraphPad). […] Statistical differences were assessed using either paired or unpaired nonparametric tests (Wilcoxin signed-rank test, Mann–Whitney test), or the extra sum of squares F-test, as appropriate. […]

In another assay the test system is BK:LINGO2 M605L mutant. As to the kind of experiment: Effect of Ch-T on BK:LINGO2 M605L currents (inside-out patch). It counts as cell-based, rabbit BKα, human LINGO2. The method, then:
as §1, §2, §3
The human LINGO2 transcript used [NM_001354575.2] was untagged in a pcDNA 3.1 vector (VectorBuilder). The α subunit of the rabbit BK channel was isolated from rabbit urethral smooth muscle and cloned using the pcDNA TOPO DNA cloning kit (Life Technologies). […]
as §5

For a further assay, the system named is BK:LINGO2 M603L mutant. As to the kind of experiment: Effect of Ch-T on BK:LINGO2 M603L currents (inside-out patch). The assay is classed as cell-based, rabbit BKα, human LINGO2. As to the method:
as §1, §2
Electrodes were pulled from Corning borosilicate glass (1.5 mm O.D. × 0.86 mm I.D.) using a Sutter P-97 pipette puller and fire polished using a Narashige MF 83 microforge. Pipettes had resistances of 2 to 5 MΩ when filled with recording solutions and series resistance was compensated by up to 80%. Standard single-channel patch clamp recording methods were used. […]
as §5

For assay [2], the system named is BK:LINGO2 channels. As to the kind of experiment: Effect of Ch-T on BK:LINGO2 currents at different voltages (GV curves). The assay is classed as cell-based, rabbit BKα, human LINGO2. The method, then:
as §1, §2, §3
as §4, with “sequencing. […]” for “sequencing.”
G was derived from peak currents according to Ohm’s law[1] […] Summary data was expressed as the […]. […] For BK constructs, data from each patch was normalized to the peak conductance measured in either 1 μM or 10 μM Ca^2+ to obtain Gmax, and curves were constrained to the Gmax value obtained in this. […]

For another assay, the system named is BKα:LINGO2. Put plainly: Effect of Ch-T on steady-state voltage-dependent inactivation (double pulse protocol). The assay is classed as cell-based, rabbit BKα, human LINGO2. Conditions: 200 μM Chloramine-T, 2 min, 100 nM Ca2+, control inactivation V1/2 36±5 mV, n = 6. The method, then: All excised patch experiments were performed at 37 °C in 140 mM symmetrical K^+ solutions which contained 140 mM KCl, 10 mM glucose, 10 mM Hepes, and either 1 mM ethylene glycol-bis(β-amino ether)-N,N,N′,N′-tetraacetic acid (EGTA (for free [Ca^2+] 100 nM to 300 nM) or 1 mM hydroxyethylethylenediaminetriacetic acid (HEDTA for free [Ca^2+] 1 μM to 10 μM) and the pH of all solutions was adjusted to 7.2 with KOH. These solutions were made with double-distilled, deionized, filtered water from a MilliQ water purification system. The pipette solution contained 100 nM free Ca^2+. We used “Chelator” (https://www.ru.nl/animal/research/chelator/) to calculate the total amount of Ca^2+ required, as per Schoenmakers et al., ([40]) and free Ca^2+ concentrations were checked with a Ca^2+ sensitive electrode. […]
Inactivation curves were fitted with a similar Boltzmann function:[3] I/Imax=1/{1+exp[±(V1/2−Vc)/K]} where, I was the current recorded at the test step, Imax was the maximal current recorded, Vc was the conditioning potential (see RESULTS), and K was the slope factor.
as §5

Entries after “also recorded” stand apart in the source; their conditions may differ.

For `Cc1ccc(S(=O)(=O)NCl)cc1` [Ch-T, Chloramine T], the “Effect on BK:LINGO2 inactivation” value is “caused rapid abolition of inactivation; also recorded: maintained for the duration of the recording, despite the removal of the oxidizing agent; also recorded: completely abolished inactivation and also increased peak current amplitude; also recorded: inactivation was clearly abolished” in the assay with BK:LINGO2 channels [1]; “abolished inactivation” in the assay on BK:LINGO2 channels [1] (listed as chloramine-T). Besides, the “Sustained current amplitude, % of peak current, after 60 s Ch-T” value in the assay with BK:LINGO2 channels [1] (60 s, last 5 ms, control 11 ± 8%, n = 7, p < 0.05, mean ± SD) was 59 ± 39%. In addition, the “Sustained current amplitude, % of peak current, after 120 s Ch-T” value in the assay on BK:LINGO2 channels [1] (120 s, last 5 ms, control 11 ± 8%, n = 7, p < 0.05, mean ± SD) is recorded as 130 ± 19%. Besides, the “Increase of peak current amplitude compared to control” value in the assay on BK:LINGO2 channels [1] (120 s, p < 0.05, n = 7, mean ± SD) was determined as 35 ± 31%. For the same compound, in the assay on BKα currents (200 μM Ch-T, up to 210 s, +160 mV, 100 nM Ca2+, n = 4-5, p = 0.43 (not significant)), the “Increase of BKα current amplitude” value was found to be 21 ± 27%. The “Effect on BKα current amplitude” value with BKα currents (Ch-T, 4-min application, n = 4 to 5, p = 0.43) is “failed to significantly increase the BKα current amplitude”. Moreover, the “Ch-T effectiveness reduction compared to WT BK:LINGO2 currents” value in the assay on BK:LINGO2 M605L mutant (M605L vs WT, p < 0.001, Mann-Whitney test) is approximately 50 % less effective. Also, in the assay with BK:LINGO2 M605L mutant (M605L, 200 μM Ch-T, 60 s + additional 90 s, 100 nM Ca2+, +160 mV, control 6 ± 4%, p < 0.01), the “Sustained current, % of peak current amplitude, after an additional 90 s Ch-T” value turned out to be 47 ± 25%. Moreover, the “Sustained current, % of peak current amplitude, after 60 s Ch-T” value in the assay with BK:LINGO2 M605L mutant (M605L, 200 μM Ch-T, 60 s, 100 nM Ca2+, +160 mV, control 6 ± 4%, n = 10, p < 0.01) is recorded as 15 ± 14%. Also, the “Sustained current, % of peak current amplitude, at end of 210 s application” value in the assay with BK:LINGO2 M605L mutant (M605L, 200 μM Ch-T, 210 s, 100 nM Ca2+, +160 mV) is approximately 50%. Besides, the “Sustained current after 60 s Ch-T” value with BK:LINGO2 M603L mutant (200 μM Ch-T, 60 s, 100 nM Ca2+, +160 mV, control 10 ± 9%, n = 9, p < 0.05) came to 17 ± 9%. Also, in the assay with BK:LINGO2 M603L mutant (200 μM Ch-T, 150 s, 100 nM Ca2+, +160 mV, control 10 ± 9%, n = 9, p < 0.05), the “Sustained current after 150 s Ch-T” value came to 20 ± 12%. The “Sustained current during Ch-T (summary in figure legend)” value with BK:LINGO2 M603L mutant (Ch-T, 7 to 9 patches) is approximately 20%. The “Inactivation after Ch-T, family of voltages” value in the assay with BK:LINGO2 channels [2] (100 nM Ca2+, -100 to +200 mV) is “inactivation was practically abolished; also recorded: increased current amplitude and practically abolished inactivation”. In addition, in the assay on BK:LINGO2 channels [2] (100 nM Ca2+, Ch-T 2 min, before Ch-T 128 ± 3 mV, n = 7, Boltzmann fit), the “Half maximal activation voltage V1/2 after Ch-T” value was 86 ± 11 mV. The “Inactivation and current amplitude after Ch-T, family of voltages” value with BK:LINGO2 channels [2] (10 μM Ca2+, 200 μM Ch-T, -100 to +200 mV) is “the current amplitude was increased at all voltages recorded, and inactivation was practically abolished”. Besides, the “G/Gmax at -60 mV in Ch-T” value with BK:LINGO2 channels [2] (10 μM Ca2+, -60 mV, 200 μM Ch-T, before 0.06 ± 0.02, n = 6, p < 0.05) stood at 0.48 ± 0.27. Moreover, in the assay with BK:LINGO2 channels [2] (Ch-T in 10 μM Ca2+), the “Open probability of BK:LINGO2 channels / conductance” value is “large increases in G across the voltage range; also recorded: increased the G/Gmax at all voltages; also recorded: significantly increased the open probability of BK:LINGO2 channels”. For the same compound, the “Steady-state voltage-dependent inactivation after Ch-T” value is “no time- or voltage-dependent inactivation was observed” in the assay on BKα:LINGO2 and “compl etel y abol i shed” in the assay on BKα:LINGO2 (listed as Chloramine-T).
